Test results reported in ChEMBL document CHEMBL3286379, “Design and synthesis of pyrimidine molecules endowed with thiazolidin-4-one as new anticancer agents” (Eur J Med Chem, 2014).

Tests used:
Rattus norvegicus [1] = test: Hepatotoxicity in rat assessed as SGPT level at 0.12 mg/kg, po after 12 days (reference value: 31.17 +/- 0.39 U/mL); format: toxicity, organism-based; design: dose 0.12 mg/kg, route oral; conditions: in vivo, 288 h
Rattus norvegicus [2] = test: Hepatotoxicity in rat assessed as SGOT level at 0.12 mg/kg, po after 12 days (reference value: 140.23 +/- 1.39 U/mL); format: toxicity, organism-based; design: dose 0.12 mg/kg, route oral; conditions: in vivo, 288 h

## O=c1[nH]cc(F)c(=O)[nH]1 [FLUOROURACIL]
Rattus norvegicus [1]
  Activity: 32.75 U/ml
Rattus norvegicus [2]
  Activity: 151.21 U/ml
